Values after ≈ are worked out from the molar mass of the structure shown. Counter-ions that a name gives are not always drawn. Like-named read-outs stand apart in the source and are kept apart here.
Experiments:
[1] = test system: Staphylococcus aureus Smith S-424; assay: Therapeutic treatment of bacterial infection in mice (ED50); format: in vivo; conditions: mice infected i.p. with S. aureus Smith S-424, 27.8 × 10^4 cells, single intramuscular injection immediately after inoculation; for ED50: Staphylococcus aureus, SMITHS424, im
Method: Said inoculum is corresponding to a 860-fold quantity of the LD50 dosage of S.aureus Smith S-424. A solution of the test compound in sterile, isotonic sodium chloride solution was intramuscularly injected into the infected mice once immediately after the inoculation of the bacterium at dosages of 0.1 mg, 0.05 mg, 0.025 mg, 0.0125 mg and 0.0063 mg of the test compound per mouse.

[2] = test system: mice; conditions: for LD50 value: intravenous, mice, six per group, 20% w/v in isotonic sodium chloride solution
[3] = test system: Bacillus subtilis; assay: Antibacterial potency by cup-assay method; format: cell-based; conditions: for antibacterial potency: assuming DKB (free base) has 1000 units/mg
[4] = test system: Proteus vulgaris OX19; assay: Minimum inhibitory concentration, serial dilution on nutrient agar; format: cell-based; conditions: 37° C, 41 hours
Method: (§1) Minimum inhibitory concentrations (mcg/ml) of the new compounds of the invention to various bacteria are estimated according to a standard serial dilution method using nutrient agar as the incubation medium, the incubation being made at 37° C for 41 hours.

[5] = test system: Escherichia coli K-12; assay: as above; format: cell-based
Method: as §1

[6] = test system: Escherichia coli K-12 JR66/W677; assay: as above; format: cell-based; conditions: for M.I.C.: Escherichia coli K-12 JR66/W677, nutrient agar, 37° C, 41 hours; for MIC: Escherichia coli, K12JR66/W677, 41 h
Method: as §1

[7] = test system: Pseudomonas aeruginosa A3; assay: as above; format: cell-based; conditions: 37° C, 41 hours
Method: as §1

[8] = test system: Escherichia coli K-12 ML-1410; assay: as above; format: cell-based; conditions: 41 hours; for M.I.C.: 37° C; for MIC: K12ML1410, 37° C
Method: as §1

[9] = test system: Shigella sonnei JS11746; assay: as above; format: cell-based; conditions: 37° C, 41 hours
Method: as §1

[10] = test system: Bacillus subtilis PCI219; assay: as above; format: cell-based
Method: as §1

[11] = test system: Pseudomonas aeruginosa GN315; assay: as above; format: cell-based
Method: as §1

[12] = test system: Klebsiella pneumoniae PCI602; assay: as above; format: cell-based; conditions: 37° C, 41 hours
Method: as §1

[13] = test system: Escherichia coli K-12 W677; assay: as above; format: cell-based; conditions: 41 hours; for M.I.C.: 37° C; for MIC: K12W677, 37° C
Method: as §1

[14] = test system: Pseudomonas aeruginosa No.12; assay: as above; format: cell-based; conditions: 37° C, 41 hours
Method: as §1

[15] = test system: Escherichia coli K-12 R81; assay: as above; format: cell-based; conditions: for M.I.C.: Escherichia coli K-12 R81, nutrient agar, 37° C, 41 hours; for MIC: Escherichia coli, K12R81, 41 h
Method: as §1

[16] = test system: Mycobacterium 607; assay: as above; format: cell-based; conditions: 37° C, 41 hours
Method: as §1

[17] = test system: Escherichia coli K-12 MA290 R55; assay: as above; format: cell-based; conditions: for M.I.C.: Escherichia coli K-12 MA290 R55, nutrient agar, 37° C, 41 hours; for MIC: Escherichia coli, K12MA290R55, 41 h
Method: as §1

[18] = test system: Escherichia coli K-12 ML-1629; assay: as above; format: cell-based; conditions: 41 hours; for M.I.C.: 37° C; for MIC: K12ML1629, 37° C
Method: as §1

[19] = test system: Staphylococcus aureus FDA 209P; assay: as above; format: cell-based; conditions: for MIC: FDA209P
Method: as §1

[20] = in vivo; conditions: mouse, iv
[21] = test system: some kanamycin-resistant bacteria and Pseudomonas aeruginosa; conditions: British Patent No. 1,349,302; cited from earlier work
[22] = Escherichia coli K-12, nutrient agar, 37° C, 41 hours
[23] = Bacillus subtilis PCI219, nutrient agar, 37° C, 41 hours
[24] = Pseudomonas aeruginosa GN315, nutrient agar, 37° C, 41 hours
[25] = Staphylococcus aureus FDA 209P, nutrient agar, 37° C, 41 hours
[26] = Bacillus subtilis PCI219, nutrient agar, 37° C, 41 hours, read-out: M.I.C.
[27] = Pseudomonas aeruginosa GN315, nutrient agar, 37° C, 41 hours, read-out: M.I.C.
[28] = Staphylococcus aureus FDA 209P, nutrient agar, 37° C, 41 hours, read-out: M.I.C.

Molecule | LD50 value [2] [mg/kg] | M.I.C. [4] [µg/mL] | M.I.C. [5, 22] [µg/mL] | M.I.C. [6] [µg/mL] | M.I.C. [7] [µg/mL] | M.I.C. [8] [µg/mL] | M.I.C. [9] [µg/mL] | M.I.C. [10, 23] [µg/mL] | M.I.C. [11, 24] [µg/mL] | M.I.C. [12] [µg/mL] | M.I.C. [13] [µg/mL] | M.I.C. [14] [µg/mL] | M.I.C. [15] [µg/mL] | M.I.C. [16] [µg/mL] | M.I.C. [17] [µg/mL] | M.I.C. [18] [µg/mL] | M.I.C. [19, 25] [µg/mL] | MIC [4] [µg/mL] | MIC [6] [µg/mL] | MIC [9] [µg/mL] | other results
3',4'-Dideoxykanamycin B-di-N-methanesulfonic acid sodium salt [DKB-di-N-methanesulfonic acid Na salt] | 4250 | < 0.2 | 0.78 | 50 | 0.78 | 0.78 | 0.78 | < 0.2 | > 100 | 0.39 | 0.78 | 1.56 | 0.78 | 0.39 | 50 | 0.78 | < 0.2 |  |  |  | ED50 value [1]: 1.15 mg/kg; acute toxicity relative to that of 3',4'-dideoxykanamycin B itself ([2]; intravenous injection into mice, from Table 2): about 1/40; antibacterial potency [3]: 590 units/mg
3',4'-Dideoxykanamycin B-di-N-methylmethane-sulfonic acid and its sodium salt | > 2000 | < 0.2 | 0.78 | 50 | 0.78 | 0.78 | 0.78 | < 0.2 | > 100 | 0.39 | 0.78 | 1.56 | 0.78 | 0.39 | 50 | 0.78 | < 0.2 |  |  |  | 
3',4'-Dideoxykanamycin B-mono-N-methanesulfonic acid and its sodium salt [DKB-mono-N-methanesulfonic acid Na salt] | > 1500 | < 0.2 | 0.78 | 50 | 0.78 | 0.78 | 0.78 | < 0.2 | > 100 | 0.39 | 0.78 | 1.56 | 0.78 | 0.39 | 50 | 0.78 | < 0.2 |  |  |  | 
3',4'-Dideoxykanamycin B-tri-N-methanesulfonic acid sodium salt [DKB-tri-N-methanesulfonic acid Na salt] | > 5000 | 0.39 | 0.78 | 100 | 0.78 | 0.78 | 1.56 | 0.2 | > 100 | 0.39 | 0.78 | 3.12 | 0.78 | 0.78 | 100 | 0.78 | < 0.2 |  |  |  | 
O=S(=O)(O)C(NC[C@@H]1CC[C@@H](NC(c2ccccc2)S(=O)(=O)O)[C@@H](O[C@H]2[C@H](O)[C@@H](O[C@H]3O[C@H](CO)[C@@H](O)[C@H](NC(c4ccccc4)S(=O)(=O)O)[C@H]3O)[C@H](NC(c3ccccc3)S(=O)(=O)O)C[C@@H]2NC(c2ccccc2)S(=O)(=O)O)O1)c1ccccc1 (stereo partly drawn) [3',4'-Dideoxykanamycin B-penta-N-phenylmethanesulfonic acid sodium salt] |  |  |  |  |  |  |  |  |  |  |  |  |  |  |  |  |  | 0.39 | 100 | 1.56 | LD50 [20]: > 5000 mg/kg; MIC ([5]; K12, Escherichia coli K-12, nutrient agar, 37° C, 41 hours, read-out: M.I.C.): 0.78 µg/mL; MIC [7]: 0.78 µg/mL; MIC [8]: 0.78 µg/mL; MIC [10, 26]: 0.2 µg/mL; MIC [11, 27]: > 100 µg/mL; MIC [12]: 0.39 µg/mL; MIC [13]: 0.78 µg/mL; MIC [14]: 3.12 µg/mL; MIC [15]: 0.78 µg/mL; MIC [16]: 0.78 µg/mL; MIC [17]: 100 µg/mL; MIC [18]: 0.39 µg/mL; MIC [19, 28]: < 0.2 µg/mL
NC[C@@H]1CC[C@@H](N)[C@@H](O[C@H]2[C@H](O)[C@@H](O[C@H]3O[C@H](CO)[C@@H](O)[C@H](N)[C@H]3O)[C@H](N)C[C@@H]2N)O1 [DKB, 3',4'-dideoxykanamycin B, reference compound] |  |  |  |  |  |  |  |  |  |  |  |  |  |  |  |  |  | < 0.2 | 50 (≈ 111 µM) | 0.78 (≈ 1.73 µM) | ED50 [1]: 1.15 mg/kg; antibacterial activity [21]: high antibacterial activity against some kanamycin-resistant bacteria and Pseudomonas aeruginosa; antibacterial potency (assumed reference value) ([3]; assumed value of the standard): 1000 units/mg; MIC ([5]; Escherichia coli, K12, 41 h): 0.78 µg/mL (≈ 1.73 µM); MIC [7]: 0.78 µg/mL (≈ 1.73 µM); MIC [8]: 0.78 µg/mL (≈ 1.73 µM); MIC [10, 26]: < 0.2 µg/mL; MIC ([11]; Pseudomonas aeruginosa, GN315, 41 h): > 100 µg/mL; MIC [12]: 0.39 µg/mL (≈ 0.864 µM); MIC [13]: 0.78 µg/mL (≈ 1.73 µM); MIC [14]: 1.56 µg/mL (≈ 3.45 µM); MIC [15]: 0.78 µg/mL (≈ 1.73 µM); MIC [16]: 0.39 µg/mL (≈ 0.864 µM); MIC [17]: 50 µg/mL (≈ 111 µM); MIC [18]: 0.78 µg/mL (≈ 1.73 µM); MIC [19, 28]: < 0.2 µg/mL
O=S(=O)(O)CNC[C@@H]1CC[C@@H](NCS(=O)(=O)O)[C@@H](O[C@H]2[C@H](O)[C@@H](O[C@H]3O[C@H](CO)[C@@H](O)[C@H](NCS(=O)(=O)O)[C@H]3O)[C@H](NCS(=O)(=O)O)C[C@@H]2NCS(=O)(=O)O)O1 [DKB-penta-N-methanesulfonic acid Na salt, 3',4'-dideoxykanamycin B-penta-N-methanesulfonic acid sodium salt] |  |  |  |  |  |  |  |  |  |  |  |  |  |  |  |  |  | 0.39 | 100 | 1.56 | ED50 [1]: 1.9 mg/kg; LD50 [20]: > 5000 mg/kg; antibacterial potency [3]: 400 units/mg; MIC ([10]; Bacillus subtilis, PCI219, 41 h): 0.2 µg/mL; MIC [11, 27]: > 100 µg/mL; MIC [12]: 0.39 µg/mL; MIC [14]: 3.12 µg/mL; MIC [17]: 100 µg/mL; MIC [18]: 0.39 µg/mL; MIC ([19]; Staphylococcus aureus, 41 h): < 0.2 µg/mL

From patent US4091202A (Zaidan Hojin Biseibutsu Kagaku Kenkyu Kai, priority 1975, dated 1978)
